The nature of the assay: Cell-based activity under Prompt Conditions: Cell-based activity under Prompt Conditions. Rat or human NHE3-mediated Na+-dependent H+ antiport was measured using a modification of the pH sensitive dye method originally reported by Paradiso (PNAS USA. 81:7436-7440, 1984). Opossum kidney (OK) cells were obtained from the ATCC and propagated per their instructions. The rat NHE3 gene (GenBank M85300) or the human NHE3 gene (GenBank NM_004174.1) was introduced into OK cells via electroporation, and cells were seeded into 96 well plates and grown overnight. Medium was aspirated from the wells, cells were washed twice with NaCl-HEPES buffer (100 mM NaCl, 50 mM HEPES, 10 mM glucose, 5 mM KCl, 2 mM CaCl2, 1 mM MgCl2, pH 7.4), then incubated for 30 min at room temperature with NH4Cl-HEPES buffer (20 mM NH4Cl, 80 mM NaCl, 50 mM HEPES, 5 mM KCl, 2 mM CaCl2, 1 mM MgCl2, pH 7.4) containing 5 μM bis(acetoxymethyl) 3,3′-(3′,6′-bis(acetoxymethoxy)-5-((acetoxymethoxy)carbonyl)-3-oxo-3H-spiro[isobenzofuran-1,9′-xanthene]-2′,7′-diyl)dipropanoate (BCECF-AM).Cells were washed twice with Ammonium free, Na+-free HEPES (100 mM choline, 50 mM HEPES, 10 mM glucose, 5 mM KCl, 2 mM CaCl2, 1 mM MgCl2, pH 7.4) and incubated in the same buffer for 10 minutes at room temperature to lower intracellular pH. […] Initial rates were plotted as the average 2 or more replicates, and pIC50 values were estimated using GraphPad Prism.
For `CN1Cc2c(Cl)cc(Cl)cc2[C@H](c2cccc(S(=O)(=O)NCCOCCOCCNC(=O)CCC(CCC(=O)NCCOCCOCCNS(=O)(=O)c3cccc([C@@H]4CN(C)Cc5c(Cl)cc(Cl)cc54)c3)(CCC(=O)NCCOCCOCCNS(=O)(=O)c3cccc([C@@H]4CN(C)Cc5c(Cl)cc(Cl)cc54)c3)NC(=O)COCC(=O)O)c2)C1`, the IC50 (in general, the point on the concentration scale where inhibition reaches its midpoint) is 25.1 nM.

`CN1Cc2c(Cl)cc(Cl)cc2[C@H](c2cccc(S(=O)(=O)NCCOCCOCCOCCNC(=O)NCCN(CCNC(=O)NCCOCCOCCOCCNS(=O)(=O)c3cccc([C@@H]4CN(C)Cc5c(Cl)cc(Cl)cc54)c3)CCNC(=O)NCCOCCOCCOCCNS(=O)(=O)c3cccc([C@@H]4CN(C)Cc5c(Cl)cc(Cl)cc54)c3)c2)C1`: the IC50 was 126 nM.

Take `CN1Cc2c(Cl)cc(Cl)cc2[C@H](c2cccc(S(=O)(=O)NCCOCCOCCOCCNC(=O)CN(CCN(CC(=O)NCCOCCOCCOCCNS(=O)(=O)c3cccc([C@@H]4CN(C)Cc5c(Cl)cc(Cl)cc54)c3)CC(=O)NCCOCCOCCOCCNS(=O)(=O)c3cccc([C@@H]4CN(C)Cc5c(Cl)cc(Cl)cc54)c3)CCN(CC(=O)NCCOCCOCCOCCNS(=O)(=O)c3cccc([C@@H]4CN(C)Cc5c(Cl)cc(Cl)cc54)c3)CC(=O)NCCOCCOCCOCCNS(=O)(=O)c3cccc([C@@H]4CN(C)Cc5c(Cl)cc(Cl)cc54)c3)c2)C1`: the IC50 was 501 nM.

Take `CCC(=O)NCCOCCOCCOCCNS(=O)(=O)c1cccc([C@@H]2CN(C)Cc3c(Cl)cc(Cl)cc32)c1`: the IC50 was 200 nM.

As to `CN1Cc2c(Cl)cc(Cl)cc2[C@H](c2cccc(S(=O)(=O)NCCOCCOCCNC(=O)NCCN(CCNC(=O)NCCOCCOCCNS(=O)(=O)c3cccc([C@@H]4CN(C)Cc5c(Cl)cc(Cl)cc54)c3)C(=O)NCCOCCOCCN)c2)C1`, the IC50 was 3.98 nM.

As for `CN(C)[C@H]1Cc2c(F)cc(Cl)cc2[C@@H]1Oc1ccc(S(=O)(=O)NCCOCCOCCNC(=O)NCCCCNC(=O)NCCOCCOCCNS(=O)(=O)c2ccc(O[C@H]3c4cc(Cl)cc(F)c4C[C@@H]3N(C)C)cc2)cc1`, the IC50 was less than 10000 nM.

Regarding `CN1Cc2c(Cl)cc(Cl)cc2[C@H](c2cccc(S(=O)(=O)NCCOCCOCCNC(=O)NCCN(CCNC(=O)NCCOCCOCCNS(=O)(=O)c3cccc([C@@H]4CN(C)Cc5c(Cl)cc(Cl)cc54)c3)C(=O)NCCOCCOCCNC(=O)c3ccc(-c4ccc(Cl)cc4)cc3)c2)C1`, the IC50 is 1580 nM.

With `CN(CC(=O)NCCOCCOCCNS(=O)(=O)c1ccc(O[C@H]2c3ccccc3C[C@@H]2N2CCCCC2)cc1)CC(=O)NCCOCCOCCNS(=O)(=O)c1ccc(O[C@H]2c3ccccc3C[C@@H]2N2CCCCC2)cc1`, the IC50 is 35.5 nM.

For the compound `CN1Cc2c(Cl)cc(Cl)cc2[C@H](c2cccc(S(=O)(=O)N(C)CCOCCOCCNC(=O)CCN(CCC(=O)NCCOCCOCCN(C)S(=O)(=O)c3cccc([C@@H]4CN(C)Cc5c(Cl)cc(Cl)cc54)c3)CCC(=O)NCCOCCOCCN(C)S(=O)(=O)c3cccc([C@@H]4CN(C)Cc5c(Cl)cc(Cl)cc54)c3)c2)C1`, the IC50 was 316 nM.

For the compound `C/C(=C\c1cc(F)c(Oc2ccc(S(=O)(=O)NCCOCCOCCOCCNC(=O)N3CCN(C(=O)NCCOCCOCCOCCNS(=O)(=O)c4ccc(Oc5c(F)cc(/C=C(\C)C(=O)N=C(N)N)cc5F)cc4)CC3)cc2)c(F)c1)C(=O)N=C(N)N`, the IC50 is 20 nM.

Turning to `CN1Cc2c(Cl)cc(Cl)cc2[C@H](c2cccc(S(=O)(=O)NCCOCCOCCOCCNC(=O)CC(O)(CC(=O)NCCOCCOCCOCCNS(=O)(=O)c3cccc([C@@H]4CN(C)Cc5c(Cl)cc(Cl)cc54)c3)C(=O)NCCOCCOCCOCCNS(=O)(=O)c3cccc([C@@H]4CN(C)Cc5c(Cl)cc(Cl)cc54)c3)c2)C1`, the IC50 was 100 nM.

Turning to `CCOCCOCCOCCNC(=O)CN(CCN(CC(=O)O)CC(=O)NCCOCCOCCOCCNS(=O)(=O)c1ccc(O[C@H]2c3ccccc3C[C@@H]2N2CCCCC2)cc1)CC(=O)O`, the IC50 was 22.4 nM.

On to `NCCOCCOCCN1CCN(c2ccc(-c3nc(N=C(N)N)nc4ccc(Cl)cc34)cc2)CC1`, for which the IC50 is 100 nM.

As for `CN(C)CC(=O)NC(CCC(=O)N(C)CCOCCOCCNS(=O)(=O)c1cccc([C@@H]2CN(C)Cc3c(Cl)cc(Cl)cc32)c1)(CCC(=O)N(C)CCOCCOCCNS(=O)(=O)c1cccc([C@@H]2CN(C)Cc3c(Cl)cc(Cl)cc32)c1)CCC(=O)N(C)CCOCCOCCNS(=O)(=O)c1cccc([C@@H]2CN(C)Cc3c(Cl)cc(Cl)cc32)c1`, the IC50 is 31.6 nM.

In the case of `N=C(N)Nc1nc(-c2ccc(S(=O)(=O)NCCOCCOCCN)cc2)c2cc(Cl)ccc2n1`, the IC50 was 126 nM.

Turning to `CC(C)(C(=O)NCCOCCOCCOCCNS(=O)(=O)c1ccc(O[C@H]2c3ccccc3C[C@@H]2N2CCCCC2)cc1)C(=O)NCCOCCOCCOCCNS(=O)(=O)c1ccc(O[C@H]2c3ccccc3C[C@@H]2N2CCCCC2)cc1`, the IC50 was 2 nM.

In the case of `CN(C)[C@H]1Cc2c(Cl)cc(Cl)cc2[C@@H]1Oc1ccc(S(=O)(=O)NCCOCCOCCNC(=O)NCCCCNC(=O)NCCOCCOCCNS(=O)(=O)c2ccc(O[C@H]3c4cc(Cl)cc(Cl)c4C[C@@H]3N(C)C)cc2)cc1`, the IC50 was 6.31 nM.

With `CN1Cc2c(Cl)cc(Cl)cc2[C@H](c2cccc(S(=O)(=O)NCCOCCOCCNC(=O)CCC(CCC(=O)NCCOCCOCCNS(=O)(=O)c3cccc([C@@H]4CN(C)Cc5c(Cl)cc(Cl)cc54)c3)(CCC(=O)NCCOCCOCCNS(=O)(=O)c3cccc([C@@H]4CN(C)Cc5c(Cl)cc(Cl)cc54)c3)NC(=O)N(C)C)c2)C1`, the concentration for half-maximal inhibition (IC50) was 2510 nM.

For `CCCCNC(=O)NCCOCCOCCNC(=O)NCCOCCOCCOCCOc1ccc(-c2nc(NC(=N)N)nc3ccc(Cl)cc23)cc1`, the half-inhibitory concentration (IC50) is 25.1 nM.

As for `NCCOCCOCCN1CCN(c2cccc(-c3nc(N=C(N)N)nc4ccc(Cl)cc34)c2)CC1`, the IC50 is 200 nM.

As to `COCCNC(=O)CN(C)CC(=O)NCCOCCOCCNC(=O)NCCOCCOCCOCCOc1ccc(-c2nc(NC(=N)N)nc3ccc(Cl)cc23)cc1`, the IC50 was 12.6 nM.

As for `C[C@@H](O)[C@H](NC(=O)NC(CCC(=O)NCCOCCOCCNS(=O)(=O)c1cccc([C@@H]2CN(C)Cc3c(Cl)cc(Cl)cc32)c1)(CCC(=O)NCCOCCOCCNS(=O)(=O)c1cccc([C@@H]2CN(C)Cc3c(Cl)cc(Cl)cc32)c1)CCC(=O)NCCOCCOCCNS(=O)(=O)c1cccc([C@@H]2CN(C)Cc3c(Cl)cc(Cl)cc32)c1)C(N)=O`, the IC50 was 63.1 nM.

For the compound `CN1Cc2c(Cl)cc(Cl)cc2[C@H](c2cccc(S(=O)(=O)NCCOCCOCCOCCNC(=O)c3ccc(-c4ccc(Cl)cc4)cc3)c2)C1`, the IC50 is less than 10000 nM.

On to `CN1Cc2c(Cl)cc(Cl)cc2[C@H](c2cccc(S(=O)(=O)NCCOCCOCCNC(=O)CCC(CCC(=O)NCCOCCOCCNS(=O)(=O)c3cccc([C@@H]4CN(C)Cc5c(Cl)cc(Cl)cc54)c3)(CCC(=O)NCCOCCOCCNS(=O)(=O)c3cccc([C@@H]4CN(C)Cc5c(Cl)cc(Cl)cc54)c3)NC(=O)NCCS(=O)(=O)O)c2)C1`, for which the IC50 was 20 nM.

As for `O=C(NCCCCNC(=O)NCCOCCOCCNS(=O)(=O)c1ccc(O[C@H]2c3ccccc3C[C@@H]2N2CCCC2)cc1)NCCOCCOCCNS(=O)(=O)c1ccc(O[C@H]2c3ccccc3C[C@@H]2N2CCCC2)cc1`, the IC50 was 2.51 nM.

For `CN1Cc2c(Cl)cc(Cl)cc2[C@H](c2cccc(S(=O)(=O)NCCOCCOCCNC(=O)NCCN(CCNC(=O)NCCOCCOCCNS(=O)(=O)c3cccc([C@@H]4CN(C)Cc5c(Cl)cc(Cl)cc54)c3)CCNC(=O)NCCOCCOCCNS(=O)(=O)c3cccc([C@@H]4CN(C)Cc5c(Cl)cc(Cl)cc54)c3)c2)C1`, the IC50 is 2510 nM.

In the case of `NCCOCCOCCNS(=O)(=O)c1ccc(O[C@H]2c3ccccc3C[C@@H]2N2CCCCC2)cc1`, the 50% inhibitory concentration (IC50) is 447 nM.

As for `CCOCCOCCOCCOCCC(=O)NCCOCCOCCNS(=O)(=O)c1ccc(OC2c3ccccc3C[C@@H]2N2CCCCC2)cc1` (stereo not given in full), the IC50 is 50.1 nM.

As to `CC(O)C(CCC(=O)NCCOCCOCCNS(=O)(=O)c1cccc([C@@H]2CN(C)Cc3c(Cl)cc(Cl)cc32)c1)(CCC(=O)NCCOCCOCCNS(=O)(=O)c1cccc([C@@H]2CN(C)Cc3c(Cl)cc(Cl)cc32)c1)CCC(=O)NCCOCCOCCNS(=O)(=O)c1cccc([C@@H]2CN(C)Cc3c(Cl)cc(Cl)cc32)c1` (stereo not given in full), the IC50 is 25.1 nM.

As for `CN1Cc2c(Cl)cc(Cl)cc2[C@H](c2cccc(S(=O)(=O)NCCOCCOCCNC(=O)NCCC(N)(CCNC(=O)NCCOCCOCCNS(=O)(=O)c3cccc([C@@H]4CN(C)Cc5c(Cl)cc(Cl)cc54)c3)CCNC(=O)NCCOCCOCCNS(=O)(=O)c3cccc([C@@H]4CN(C)Cc5c(Cl)cc(Cl)cc54)c3)c2)C1`, the IC50 is 44.7 nM.

Consider `CC(C)CCC[C@@H](C)[C@H]1CC[C@H]2[C@@H]3CC=C4C[C@@H](OC(=O)NCCOCCOCCOCCNS(=O)(=O)c5cccc([C@@H]6CN(C)Cc7c(Cl)cc(Cl)cc76)c5)CC[C@]4(C)[C@H]3CC[C@]12C`, for which the IC50 was less than 10000 nM.

As for `CCN(CCOCCOCCNC(=O)NCCCN(CCCNC(=O)NCCOCCOCCN(CC)S(=O)(=O)c1cccc([C@@H]2CN(C)Cc3c(Cl)cc(Cl)cc32)c1)CCCNC(=O)NCCOCCOCCN(CC)S(=O)(=O)c1cccc([C@@H]2CN(C)Cc3c(Cl)cc(Cl)cc32)c1)S(=O)(=O)c1cccc([C@@H]2CN(C)Cc3c(Cl)cc(Cl)cc32)c1`, the IC50 is 1000 nM.

Turning to `CN1Cc2c(Cl)cc(Cl)cc2[C@H](c2cccc(S(=O)(=O)NCCOCCOCCN(C)C(=O)CCC(CCC(=O)N(C)CCOCCOCCNS(=O)(=O)c3cccc([C@@H]4CN(C)Cc5c(Cl)cc(Cl)cc54)c3)(CCC(=O)N(C)CCOCCOCCNS(=O)(=O)c3cccc([C@@H]4CN(C)Cc5c(Cl)cc(Cl)cc54)c3)NC(=O)COCC(=O)O)c2)C1`, the IC50 was 20 nM.

With `N=C(N)Nc1nc(-c2cccc(S(=O)(=O)NCCOCCOCCN)c2)c2cc(Cl)ccc2n1`, the 50% inhibitory concentration (IC50) was 501 nM.

Take `CN1Cc2c(Cl)cc(Cl)cc2[C@H](c2cccc(S(=O)(=O)NCCOCCOCCOCCNC(=O)COCC(=O)NCCOCCOCCOc3cccc(-c4nc(NC(=N)N)nc5ccc(Cl)cc45)c3)c2)C1`: the IC50 is 141 nM.

The values above are taken from ChEMBL document CHEMBL5726876, “NHE3-binding compounds and methods for inhibiting phosphate transport” (2019).
